From patent US20030216324A1, “Airway mucus secretion inhibitors” (priority 2000, published 2003)

Tests used:
[1] = tested on: augmentative mucus secretion in guinea pig trachea; test: Suppressive effect on augmentative secretion by antigen challenge (ovalbumin-sensitized guinea pig, mucus score by PAS-Alcian Blue); format: in vivo; details: OA-sensitized guinea pig; test drug 100 mg/kg oral; 5% OA inhaled 30 minutes after drug; trachea removed 10 minutes later
Description: Suppressive Effect on Augmentative Secretion by Antigen Challenge
Egg albumin (Ovalbumin:OA) (70 mg/kg) is administered and sensitized to guinea pig into the peritoneal cavity on the first experiment day and 8th day. The test drug (100 mg/kg) was oral administered to the sensitized guinea pig on 22nd experiment day. 5%OA was inhaled for 2 minutes 30 minutes after the test drug was administered, and the trachea was removed 10 minutes later. It was dyed with PAS-Alcian Blue, and the augmentative mucus secretion was evaluated according to the level of the decrease in mucus score.
As a test drug, 2-[5-amino-6-oxo-2-phenyl-1,6-dihydro-1-pyrimidinyl]-N-[1-[[5-(t-butyl)-1,3,4-oxadiazole-2-yl]carbonyl]-2-methylpropyl]acetamide (Compound 34) was used.

[2] = tested on: augmentative airway mucus secretion; details: airway inflammation model by ozone exposure (lesion similar to chronic bronchitis); cited from earlier work

SMILES	mucus score (augmentative mucus secretion, PAS-Alcian Blue dye) [1]	augmentative airway mucus secretion [2]
CC(C)C(NC(=O)Cn1c(-c2ccccc2)ncc(N)c1=O)C(=O)c1nnc(C(C)(C)C)o1 (centres unmarked) [Compound 34, 2-[5-amino-6-oxo-2-phenyl-1,6-dihydro-1-pyrimidinyl]-N-[1-[[5-(t-butyl)-1,3,4-oxadiazole-2-yl]carbonyl]-2-methylpropyl]acetamide]	intentionally suppressed	
CC(C)(C)C(=O)Oc1ccc(S(=O)(=O)Nc2ccccc2C(=O)NCC(=O)O)cc1 [ONO-5046]		suppress
